{"source": "patent US10966426B2", "about": "“Herbicidal compositions comprising phenylpyrimidines” (BASF SE, priority 2016, dated 2021)", "type_in_all_cases": "in vivo", "key": {"Brachiaria decumbens": {"system": "Brachiaria decumbens", "assay": "greenhouse pre-emergence treatment, BRADC", "conditions": "Urochloa decumbens, 480 h, BRADC, chlorotoluron solo 500 gai/ha, 20 DAT", "method_in_brief": "(§1)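 Damage rated on 0 to 100 scale (0 = normal growth, 100 = no emergence or total above-ground kill) after 2-4 weeks at species-dependent 10-25° C or 20-35° C. Seeds sown per species in loamy sand, ~3.0% humus, treated right after sowing with aqueous spray of single actives or 10% emulsion-concentrate mixtures, then hooded; additive expectation by Colby.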"}, "Helianthus annuus": {"system": "Helianthus annuus", "assay": "greenhouse pre-emergence treatment, HELAN", "conditions": "Helianthus annuus, 480 h, HELAN, chlorotoluron solo 500 gai/ha, 20 DAT", "method_in_brief": "as §1"}, "Avena fatua [1]": {"system": "Avena fatua", "assay": "greenhouse post-emergence treatment, AVEFA", "conditions": "Avena fatua, 480 h, AVEFA, 20 DAT", "method_in_brief": "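Scoring used a 0 to 100 scale, with 100 denoting no emergence or full destruction of at least the above-ground parts, recorded within a 2 to 4 week test period. Test plants grew in loamy sand containing about 3.0% humus at 10-25° C. or 20-35° C., after direct sowing or transplanting, and received water-based treatments post-emergence.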"}, "Stellaria media": {"system": "Stellaria media", "assay": "greenhouse pre-emergence treatment, STEME", "conditions": "chlorotoluron solo 250 gai/ha, 20 DAT", "method_in_brief": "as §1"}, "Papaver rhoeas": {"system": "Papaver rhoeas", "assay": "greenhouse pre-emergence treatment, PAPRH", "conditions": "20 DAT", "method_in_brief": "as §1"}, "Apera spica-venti [2]": {"system": "Apera spica-venti", "assay": "greenhouse pre-emergence treatment, APESV", "conditions": "20 DAT", "method_in_brief": "as §1"}, "Apera spica-venti [3]": {"system": "Apera spica-venti", "assay": "greenhouse post-emergence treatment, APESV", "conditions": "APESV, 20 DAT", "method_in_brief": "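Loamy sand, ~3.0% humus; species sown separately; treated at 3–15 cm height; 10% w/w EC diluted in water; 10-25° C./20-35° C. per species; 2–4 wk; visual 0–100 rating.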"}, "Avena fatua [4]": {"system": "Avena fatua", "assay": "greenhouse pre-emergence treatment, AVEFA", "conditions": "Avena fatua, 480 h, AVEFA, chlorotoluron solo 62.5 gai/ha, 20 DAT", "method_in_brief": "as §1"}, "Matricaria chamomilla": {"system": "Matricaria chamomilla", "assay": "greenhouse post-emergence treatment, MATCH", "conditions": "Matricaria chamomilla, 480 h, MATCH, chlorotoluron solo 125 gai/ha, 20 DAT", "method_in_brief": "(§2)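 Foliar application to greenhouse-grown plants 3–15 cm tall in humus-containing loamy sand; response assessed on a 0–100 scale after 2–4 weeks, with Colby's E=X+Y−(X·Y/100) as the additive expectation.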"}, "Galium aparine": {"system": "Galium aparine", "assay": "greenhouse post-emergence treatment, GALAP", "conditions": "Galium aparine, 480 h, GALAP, 20 DAT", "method_in_brief": "as §2"}}}
{"smiles": "Cc1ccc(NC(=O)N(C)C)cc1Cl", "note": "[chlorotoluron]", "values": [{"measurement": "pest or weed control at 500 g/ha", "setting": "Brachiaria decumbens", "result": 0, "unit": "%"}, {"measurement": "plant injury at 500 g/ha", "setting": "Helianthus annuus", "result": 10, "unit": "%"}, {"measurement": "pest or weed control at 125 g/ha", "setting": "Avena fatua [1]; chlorotoluron solo 125 gai/ha, read-out: % activity", "result": 0, "unit": "%"}, {"measurement": "pest or weed control at 250 g/ha", "setting": "Avena fatua [1]; chlorotoluron solo 250 gai/ha", "result": 40, "unit": "%"}, {"measurement": "pest or weed control at 500 g/ha", "setting": "Avena fatua [1]; chlorotoluron solo 500 gai/ha", "result": 70, "unit": "%"}, {"measurement": "% activity", "setting": "Stellaria media", "result": 65, "unit": "%"}, {"measurement": "% activity", "setting": "Papaver rhoeas; chlorotoluron solo 62.5 gai/ha", "result": 0, "unit": "%"}, {"measurement": "% activity", "setting": "Papaver rhoeas; chlorotoluron solo 500 gai/ha", "result": 90, "unit": "%"}, {"measurement": "% activity", "setting": "Apera spica-venti [2]; chlorotoluron solo 62.5 gai/ha", "result": 55, "unit": "%"}, {"measurement": "% activity", "setting": "Apera spica-venti [2]; chlorotoluron solo 250 gai/ha", "result": 65, "unit": "%"}, {"measurement": "% activity", "setting": "Apera spica-venti [2]; chlorotoluron solo 500 gai/ha", "result": 65, "unit": "%"}, {"measurement": "% activity", "setting": "Apera spica-venti [3]; chlorotoluron solo 62.5 gai/ha", "result": 25, "unit": "%"}, {"measurement": "% activity", "setting": "Apera spica-venti [3]; chlorotoluron solo 125 gai/ha", "result": 55, "unit": "%"}, {"measurement": "pest or weed control at 62.5 g/ha", "setting": "Avena fatua [4]", "result": 0, "unit": "%"}, {"measurement": "pest or weed control at 125 g/ha", "setting": "Matricaria chamomilla", "result": 50, "unit": "%"}, {"measurement": "pest or weed control at 250 g/ha", "setting": "Galium aparine; chlorotoluron solo 250 gai/ha", "result": 65, "unit": "%"}, {"measurement": "pest or weed control at 500 g/ha", "setting": "Galium aparine; chlorotoluron solo 500 gai/ha", "result": 70, "unit": "%"}]}
